Results published in PMC12102759 (Protein Science : A Publication of the Protein Society, 2025).

Legend:
NSP3 SUD-M = NSP3 SUD-M (Severe acute respiratory syndrome coronavirus 2, UniProt P0DTC1); test: biochemical; format: binding, SARS‐CoV‐2
NSP3 UBl1 = NSP3 UBl1 (Severe acute respiratory syndrome coronavirus 2, UniProt P0DTC1); format: binding, SARS‐CoV‐2
NSP9 = NSP9 (Severe acute respiratory syndrome coronavirus 2, UniProt P0DTC1); format: binding, SARS‐CoV‐2

With GHSPADYLRFQDLVLR the “DMS PSSM value, P (position 4)” value (NSP16) was 0.03004, the “DMS PSSM value, column A (position 5)” value (NSP16) was 0.5801 and the “DMS PSSM value, column D (position 6)” value (NSP16) was 0.9437. The “DMS PSSM value, column D (position 12)” value (NSP16) was 0.8934, the “DMS PSSM value, column F (position 10)” value (NSP16) was 1 and the “DMS PSSM value, column G (position 1)” value (NSP16) was 0.4974. The “DMS PSSM value, column H (position 2)” value (NSP16) was 0.3305, the “DMS PSSM value, column L (position 8)” value (NSP16) was 0.965 and the “DMS PSSM value, column L (position 13)” value (NSP16) was 0.8766. For the same substance, the “DMS PSSM value, column L (position 15)” value (NSP16) was 0.9948, the “DMS PSSM value, column Q (position 11)” value (NSP16) was 1 and the “DMS PSSM value, column R (position 9)” value (NSP16) was 0.07816. For the same substance, the “DMS PSSM value, column S (position 3)” value (NSP16) was 0.3438, the “DMS PSSM value, column V (position 14)” value (NSP16) was 0.9023 and the “DMS PSSM value, column Y (position 7)” value (NSP16) was 1.

EPGHSPADYLRFQDLV was tested, and the “DMS PSSM value, P (position 2)” value (NSP16) was 0, the “DMS PSSM value, column A (position 7)” value (NSP16) was 0 and the “DMS PSSM value, column D (position 8)” value (NSP16) was 1. The “DMS PSSM value, column D (position 14)” value (NSP16) was 1, the “DMS PSSM value, column F (position 12)” value (NSP16) was 1 and the “DMS PSSM value, column G (position 3)” value (NSP16) was 0. The “DMS PSSM value, column H (position 4)” value (NSP16) was 1, the “DMS PSSM value, column L (position 10)” value (NSP16) was 0 and the “DMS PSSM value, column L (position 15)” value (NSP16) was 0. The “DMS PSSM value, column P (position 6)” value (NSP16) was 0, the “DMS PSSM value, column Q (position 13)” value (NSP16) was 1 and the “DMS PSSM value, column R (position 11)” value (NSP16) was 1. For the same substance, the “DMS PSSM value, column S (position 5)” value (NSP16) was 0, the “DMS PSSM value, column V (position 16)” value (NSP16) was 1 and the “DMS PSSM value, column Y (position 9)” value (NSP16) was 0.

With Ac-QFTEENLHFVLYGVTPY-NH2 [PRDM14 D201N] the “effect of mutation on affinity, in words” value (NSP3 SUD-M) was “reduced affinity”.

Ac-QFTEEALHFVLYGVTPY-NH2 [PRDM14 D201A] was tested, and the “effect of mutation on affinity, in words” value (NSP3 SUD-M) was “reduced affinity”.

With DEGALLDQLYLALRNF the “PSSM value, column E” value (NSP3 UBl1) was 1, the “PSSM value, column G” value (NSP3 UBl1) was 0.00255 and the “PSSM value, column N” value (NSP3 UBl1) was 0.0003155. For the same substance, the “PSSM value, column Q” value (NSP3 UBl1) was 0.001034, the “PSSM value, column R” value (NSP3 UBl1) was 0.0009557 and the “PSSM value, column Y” value (NSP3 UBl1) was 0.8625.

In the case of SGLSIGTVFQSSSPGG, the “PSSM value, position F9 of SGLSIGTVFQSSSPGG” value (NSP9) is reported as 0, the “PSSM value, position I5 of SGLSIGTVFQSSSPGG” value (NSP9) is reported as 1 and the “PSSM value, position L3 of SGLSIGTVFQSSSPGG” value (NSP9) is reported as 0. For the same substance, the “PSSM value, position P14 of SGLSIGTVFQSSSPGG” value (NSP9) was 0, the “PSSM value, position Q10 of SGLSIGTVFQSSSPGG” value (NSP9) was 0 and the “PSSM value, position S1 of SGLSIGTVFQSSSPGG” value (NSP9) was 0. The “PSSM value, position S4 of SGLSIGTVFQSSSPGG” value (NSP9) was 0, the “PSSM value, position S11 of SGLSIGTVFQSSSPGG” value (NSP9) was 0 and the “PSSM value, position S12 of SGLSIGTVFQSSSPGG” value (NSP9) was 0. The “PSSM value, position S13 of SGLSIGTVFQSSSPGG” value (NSP9) was 0, the “PSSM value, position T7 of SGLSIGTVFQSSSPGG” value (NSP9) was 0 and the “PSSM value, position V8 of SGLSIGTVFQSSSPGG” value (NSP9) was 0.

With PSDEGALLDQLYLALR the “PSSM value, column E” value (NSP3 UBl1) was 0.9239, the “PSSM value, column G” value (NSP3 UBl1) was 0.163 and the “PSSM value, column Q” value (NSP3 UBl1) was 0.8454. The “PSSM value, column R” value (NSP3 UBl1) was 0.000271, the “PSSM value, column S” value (NSP3 UBl1) was 0.00806 and the “PSSM value, column Y” value (NSP3 UBl1) was 0.04994.

With NSSGLSIGTVFQSSSP the “PSSM value, position F11 of NSSGLSIGTVFQSSSP” value (NSP9) was 0.004607, the “PSSM value, position I7 of NSSGLSIGTVFQSSSP” value (NSP9) was 0.3584 and the “PSSM value, position L5 of NSSGLSIGTVFQSSSP” value (NSP9) was 0.5284. The “PSSM value, position P16 of NSSGLSIGTVFQSSSP” value (NSP9) was 0.0472, the “PSSM value, position Q12 of NSSGLSIGTVFQSSSP” value (NSP9) was 0.008402 and the “PSSM value, position S2 of NSSGLSIGTVFQSSSP” value (NSP9) was 0.1505. The “PSSM value, position S3 of NSSGLSIGTVFQSSSP” value (NSP9) was 0.01233, the “PSSM value, position S6 of NSSGLSIGTVFQSSSP” value (NSP9) was 0.08225 and the “PSSM value, position S13 of NSSGLSIGTVFQSSSP” value (NSP9) was 0.05519. The “PSSM value, position S14 of NSSGLSIGTVFQSSSP” value (NSP9) was 0.02572, the “PSSM value, position S15 of NSSGLSIGTVFQSSSP” value (NSP9) was 0.009443 and the “PSSM value, position T9 of NSSGLSIGTVFQSSSP” value (NSP9) was 0.0231. The “PSSM value, position V10 of NSSGLSIGTVFQSSSP” value (NSP9) was 0.01201.
